Laboratory results reported in patent US8263563B2, “Furin inhibitors” (priority 2004, dated 2012).
Ends that are not written are not given here. * marks the point of attachment. Decanoyl = CCCCCCCCCC(=O)*; OPH = not defined here; CH2Cl = ClC*

System: lung epethalial and macrophage cells exposed to anthrax toxin (PA and FP59)
Type: cell-based

Substance	Protein Synthesis Inferred From ^35S incorporation [%]
PGluArgValArgArgOPH (PERVRR-{OPH}; not fully specified (some residues); printed as PGluArgValArgArgOPH; reading uncertain) [ERVRR-OPH]	70.9 ± 8.7
decanoyl RVKR-CMK (Decanoyl-RVKR-CH2Cl)	86.9 ± 9.9
